Tests used:
[1] = test system: GL261 murine glioma cells; test: In vitro nanoparticle efficacy, CellTiter-Glo cell viability; type: cell-based; conditions: Mus musculus, 72 hours, read-out: IC50, growth inhibition
Experimental: Cell Culture GL261-LucNeo cells were generated by retroviral transduction of parent GL261 cells. The LucNeo construct (obtained from AndrewKung laboratory, Dana-Farber Cancer Institute) is described in Rubin et al.. Cells were maintained under normal adherent culture conditions supplemented with G-418 as a selection pressure. Cells were grown in T25 flasks in DMEM containing glucose, L-glutamine and 10% FBS at 37° C. and 5% CO2. 0.25% trypsin-EDTA was applied to collect cells, and a Cellometer mini (Nexcelom Bioscience, Lawrence, MA USA) was used to count cells prior to all in vitro and in vivo experiments.
In vitro Nanoparticle Efficacy GL261 cells were seeded in 96-well flat, white walled, clear bottom plates at a density of 3 k cells/well in 100 μl media and allowed to attach for 4 hours prior to adding treatments. Each plate was treated with 10 μl/well of 19 serial dilutions (1:2) ranging from 10 to 0 μM in PBS of either free drug or nanoparticles. After 72 hours, cell viability was assessed using CellTiter-Glo, and an IC50 value was calculated using GraphPad Prism (San Diego, CA USA) by a nonlinear fit of the log (inhibitor) vs. response function.

[2] = test system: orthotopic GL261-LucNeo tumors; test: Treatment efficacy in mice bearing orthotopic GL261 tumors (bioluminescence tumor growth, survival); type: in vivo, C57BL/6 albino mice; conditions: free drug study: 10 mg/kg IP, days 11, 12, 18, 19, n=5
Experimental: Tumor induction Orthotopic GL261-LucNeo tumors were induced in C57BL/6 albino mice (Harlan Laboratories, Indianass, IN, USA) as previously reported. Briefly, mice were anesthetized with an intraperitoneal injection of ketamine/xylazine (100/10 mg/kg) and mounted in a stereotaxic frame (Kopf Instruments, Tujunga, CA, USA) on top of an infrared heating pad to maintain animal temperature. The animal's head was shaved and sterilized with three alternating passes each of betadine and ethanol. A 1 cm incision was made over midline, and a burr hole was drilled 2 mm lateral, 0.1 mm posterior of bregma. A hamiltion syringe (29 gauge needle) containing 75 k GL261-LucNeo cells in 2 μl DMEM was inserted into the hole to a depth of 2.8 mm and the cells were injected over 2 min. The needle was left in place for 1 min to reduce backflow before the wound was closed with staples. All animals received a subcutaneous (SQ) injection of Buprenorphine SR prior to surgery, and ibuprofen was provided in their water ad lib for 1 week for pain. […]
Tumor treatment Quisinostat-loaded nanoparticles were tested in vivo in mice bearing orthotopic GL261 tumors. […] Treatment efficacy was measured by tumor growth and median survival. Mice were monitored daily and euthanized at the sign of symptoms (lack of grooming, abnormal gait, hunched posture, etc.) or greater than 15% weight loss. […]

[3] = Controlled release of quisinostat from dialysis cassette into PBS; type: physicochemical; conditions: 37° C., 3.5k MWCO dialysis cassette
Experimental: Controlled Release Quisinostat release from nanoparticles was determined using a protocol adapted from Wang et al.. Nanoparticles were diluted to 20 mg/ml in PBS (pH 7) and 400 μl was transferred to a 3.5 k MWCO Slide-A-Lyzer Dialysis cassette (Thermo Fisher Scientific, Waltham, MA USA) in triplicate. Each cassette was immersed in 2 l PBS (pH 7, replaced at each time point) at 37° C. with gentle stirring (100 rpm). At each time point, 30 μl nanoparticles was removed from the cassette and dissolved in 150 μl DMSO. 60 μl dissolved nanoparticles was added in triplicate to a clear, flat bottom, 96-well plate, and the amount of drug remaining was quantified by absorbance as described above. A free quisinostat control at the equivalent concentration was included to measure quisinostat movement across the membrane using the same protocol.

[4] = solubilized with hydroxy-propyl-β-cyclodextrin and/or mannitol; IP or SQ injection; cited from earlier work

## Cn1cc(CNCC2CCN(c3ncc(C(=O)NO)cn3)CC2)c2ccccc21 [quisinostat, Quisinostat]
[1]
  IC50: 24 nM
[2]; saline 2.4 days
  tumor doubling time: 2.4 days
[2]; saline 22 days
  median survival: 19 days
[3]
  time to complete quisinostat release: ≤ 4 h
[4]
  maximum tolerated dose: 35-70 mg/kg/week
